Test results published in patent US11873287B2, “Piperidine-2,6-dione derivatives and ulcerative colitis treating” (TIANJIN HEMAY PHARMACEUTICAL SCI-TECH CO., LTD, priority 2016, dated 2024).
Several values for one entry are separate records, joined by “and”; a condition that tells them apart may be missing. Identical values can stand only once.

Tested on: ICR mice
Experiment: Acute toxicity experiment of single oral administration in mice
Assay type: in vivo
Protocol: The mice were fasted one day before the experiment. On the day of the experiment, 6 mice (ICR mice, body weight of 19-21 g, three females and three males) were selected in each experiment group. First of all, one female and one male were selected to orally give 1000 mg/Kg, and observed for 5-10 minutes. If there were no obvious side effects, the remaining 4 animals were orally given the same dose, and observed for 10-15 minutes. If no animal died, the animals were placed in a box to balancedly feed for 7 days. The state was observed and the body weight was recorded daily.
Observation Indexes within 0-15 Minutes After Administration
Activity: restlessness, hyperactivity
Nervous system response: tremor, spasm, convulsion, ataxia, posture abnormality, etc.
Autonomic nerve: exophthalmos, salivation, tears, urination (hematuria), diarrhea, piloerection, breathing, etc.
Observation Indexes Over 7 Days
State of Animal: lethargy, hyperactivity, excitement, hair loss, diarrhea, abnormal behavior, death, etc.

[1] = Day 1, 1000 mg/Kg single oral dose
[2] = Day 2, 1000 mg/Kg single oral dose
[3] = Day 3, 1000 mg/Kg single oral dose
[4] = Day 4, 1000 mg/Kg single oral dose
[5] = Day 5, 1000 mg/Kg single oral dose
[6] = Day 6, 1000 mg/Kg single oral dose
[7] = Day 7, 1000 mg/Kg single oral dose
[8] = Day 1, 1000 mg/Kg single oral dose, 1000 mg/kg
[9] = Day 2, 1000 mg/Kg single oral dose, 1000 mg/kg
[10] = Day 3, 1000 mg/Kg single oral dose, 1000 mg/kg
[11] = Day 4, 1000 mg/Kg single oral dose, 1000 mg/kg
[12] = Day 5, 1000 mg/Kg single oral dose, 1000 mg/kg
[13] = Day 6, 1000 mg/Kg single oral dose, 1000 mg/kg
[14] = Day 7, 1000 mg/Kg single oral dose, 1000 mg/kg
[15] = Female, 1000 mg/Kg single oral dose
[16] = Male, 1000 mg/Kg single oral dose

Row | Compound | Daily Body Weight of Tested Female Mice (Mean ± SD) [1] | Daily Body Weight of Tested Male Mice (Mean ± SD) [1] | Daily Body Weight of Tested Female Mice (Mean ± SD) [2] | Daily Body Weight of Tested Male Mice (Mean ± SD) [2] | Daily Body Weight of Tested Female Mice (Mean ± SD) [3] | Daily Body Weight of Tested Male Mice (Mean ± SD) [3] | Daily Body Weight of Tested Female Mice (Mean ± SD) [4] | Daily Body Weight of Tested Male Mice (Mean ± SD) [4] | Daily Body Weight of Tested Female Mice (Mean ± SD) [5] | Daily Body Weight of Tested Male Mice (Mean ± SD) [5] | Daily Body Weight of Tested Female Mice (Mean ± SD) [6] | Daily Body Weight of Tested Male Mice (Mean ± SD) [6] | Daily Body Weight of Tested Female Mice (Mean ± SD) [7] | Daily Body Weight of Tested Male Mice (Mean ± SD) [7] | Summary of toxic response of tested animals in 7 Days [15] | Summary of toxic response of tested animals in 7 Days [16] | also measured
1 | COCCN1C(=O)CCC(N2C(=O)c3cccc(NC(C)=O)c3C2=O)C1=O (centres unmarked) [Example 1, 4-acetylamino-2-(1-(2-methoxyethyl)-2,6-dioxopiperidin-3-yl)isoindolin-1,3-dione] | 18.5 ± 0.1 g | 20.1 ± 1.4 g | 22.8 ± 0.3 g | 23.8 ± 1.4 g | 23.2 ± 0.7 g | 24.9 ± 1.0 g | 24.0 ± 0.2 g | 26.3 ± 1.2 g | 25.3 ± 1.6 g | 27.7 ± 1.3 g | 25.7 ± 1.6 g | 29.2 ± 1.4 g | 27.1 ± 1.1 g | 29.4 ± 1.4 g | – | – | –
2 | COCCN1C(=O)CCC(N2C(=O)c3ccc(F)c(N)c3C2=O)C1=O (centres unmarked) [Example 9, 4-amino-S-fluoro-2-(1-(2-methoxyethyl)-2,6-dioxopiperidin-3-yl)isoindolin-1,3-dione] | – | – | – | – | – | – | – | – | – | – | – | – | – | – | – | – | Summary of toxic response of tested animals in 7 Days (mouse, in vivo, po, 1000 mg/kg): Abnormality was not observed in 7 days of the test
3 | COCCN1C(=O)CCC(N2C(=O)c3cccc(N(C)C)c3C2=O)C1=O (centres unmarked) [Example 3, 4-dimethylamino-2-(1-(2-methoxyethyl)-2,6-dioxopiperidin-3-yl)isoindolin-1,3-dione] | – | – | – | – | – | – | – | – | – | – | – | – | – | – | Abnormality was not observed in 7 days of the test | Abnormality was not observed in 7 days of the test | Daily Body Weight of Tested Female Mice (Mean ± SD) [8]: 18.3 ± 0.4 g and 18.8 ± 0.4 g; Daily Body Weight of Tested Male Mice (Mean ± SD) [8]: 18.8 ± 0.7 g and 18.0 ± 0.2 g; Daily Body Weight of Tested Female Mice (Mean ± SD) [9]: 21.7 ± 0.2 g and 22.1 ± 1.2 g; Daily Body Weight of Tested Male Mice (Mean ± SD) [9]: 23.3 ± 0.1 g and 22.9 ± 0.3 g; Daily Body Weight of Tested Female Mice (Mean ± SD) [10]: 22.3 ± 0.2 g and 22.7 ± 0.8 g; Daily Body Weight of Tested Male Mice (Mean ± SD) [10]: 24.3 ± 0.1 g and 24.3 ± 0.9 g; Daily Body Weight of Tested Female Mice (Mean ± SD) [11]: 22.6 ± 0.8 g and 23.0 ± 1.4 g; Daily Body Weight of Tested Male Mice (Mean ± SD) [11]: 25.6 ± 0.7 g and 25.2 ± 1.1 g; Daily Body Weight of Tested Female Mice (Mean ± SD) [12]: 23.0 ± 1.4 g and 23.7 ± 1.9 g; Daily Body Weight of Tested Male Mice (Mean ± SD) [12]: 26.9 ± 0.8 g and 27.0 ± 1.3 g; Daily Body Weight of Tested Female Mice (Mean ± SD) [13]: 22.6 ± 1.3 g and 24.1 ± 1.2 g; Daily Body Weight of Tested Male Mice (Mean ± SD) [13]: 27.9 ± 0.9 g and 28.2 ± 1.9 g; Daily Body Weight of Tested Female Mice (Mean ± SD) [14]: 22.7 ± 0.4 g and 24.4 ± 1.8 g; Daily Body Weight of Tested Male Mice (Mean ± SD) [14]: 28.6 ± 0.4 g and 28.5 ± 2.7 g
4 | COCCN1C(=O)CCC(N2C(=O)c3c(N)ccc(O)c3C2=O)C1=O (centres unmarked) [Example 10, 4-amino-7-hydroxy-2-(1-(2-methoxyethyl)-2,6-dioxopiperidin-3-yl)isoindolin-1,3-dione] | 19.2 ± 0.5 g | 19.4 ± 0.3 g | 21.9 ± 0.4 g | 24.4 ± 0.6 g | 22.4 ± 0.2 g | 25.5 ± 0.9 g | 22.4 ± 0.2 g | 25.5 ± 0.9 g | 22.9 ± 0.6 g | 26.8 ± 0.9 g | 24.1 ± 1.5 g | 29.2 ± 0.7 g | 24.2 ± 1.8 g | 30.3 ± 0.7 g | Decrease of activity was observed in all the animals within 30 | Decrease of activity was observed in all the animals within 30 | –
5 | COCCCN1C(=O)CCC(N2C(=O)c3ccc(N)cc3C2=O)C1=O (centres unmarked) [Example 18, 5-amino-2-(1-(3-methoxypropyl)-2,6-dioxopiperidin-3-yl)isoindolin-1,3-dione] | 18.4 ± 0.7 g | 18.2 ± 0.4 g | 22.5 ± 0.8 g | 23.0 ± 0.7 g | 23.8 ± 1.1 g | 24.1 ± 0.4 g | 24.8 ± 1.5 g | 25.6 ± 0.8 g | 24.8 ± 0.6 g | 28.1 ± 1.1 g | 25.4 ± 0.7 g | 29.0 ± 1.4 g | 25.2 ± 1.1 g | 29.0 ± 1.0 g | – | – | –
6 | CSCCN1C(=O)CCC(N2C(=O)c3cccc(N)c3C2=O)C1=O (centres unmarked) [Example 11, 4-amino-2-(1-(2-methylthioethyl)-2,6-dioxopiperidin-3-yl)isoindolin-1,3-dione] | 18.1 ± 0.2 g | 19.5 ± 0.6 g | 21.7 ± 0.2 g | 23.7 ± 0.8 g | 22.4 ± 0.1 g | 25.4 ± 0.4 g | 22.4 ± 0.1 g | 25.4 ± 0.4 g | 23.5 ± 0.4 g | 27.0 ± 0.5 g | 23.2 ± 0.8 g | 29.0 ± 0.7 g | 23.2 ± 0.9 g | 29.8 ± 1.0 g | Decrease of activity was observed in one animal after | Abnormality was not observed in 7 days of the test | –
